Results reported in patent US20090054329A1, “COMPOSITION WITH DOCOSAPENTAENOIC ACID” (N.V. Nutricia, priority 2005, published 2009).

Key:
[1] = system: intestinal epithelial cell lines T84; test: Permeability for 4 kD FITC dextran (flux) across T84 monolayers; format: cell-based, human; settings: for Permeability (Flux) Increased by IL-4: T84 monolayers, fatty acid 100 μM, 72 hr incubation, IL-4, 4 kDa FITC-dextran; for Effect on increase of permeability caused by cytokines (in words): incubations with cytokines (IL-4), 100 μM, 72 hr
Method: Monolayers (MC) of intestinal epithelial cell lines T84 (American Type Culture Collection (ATTC), Manassas, USA) were cultured on transwell filters (Corning, Costar BV, The Netherlands) allowing both mucosal and serosal sampling and stimulation of human intestinal epithelial cells. Two weeks post confluence the monolayers were incubated in the luminal compartment with polyunsaturated fatty acids DPA (7,10,13,16,19-docosapentaenoic acid, 22:5 n3), AA (arachidonic acid; 5,8,11,14-eicosatetraenoic acid), DHA (cis-4,7,10,13,16,19 docosahexaenoic acid), EPA (eicosapentaenoic acid) or control palmitic (C 16:0) acid (Palm) (Sigma, St. Louis, USA). The latter procedure was chosen to mimic the in vivo administration route of the dietary compounds. Cells were incubated with DPA, AA, DHA, EPA, or palmitic acid for 0, 24, 48 and 72 h at 100 μM.
(§1) Experiments were performed to evaluate basal barrier integrity and cytokine (IL-4) induced barrier disruption. The epithelial barrier function was determined by measuring the transepithelial resistance (TER, Ω.cm^2) by epithelial volt-ohm meter (EVOM; World Precision Instruments, Germany) and permeability for 4 kD FITC dextran (paracellular permeability marker, Sigma, USA). Epithelial permeability for 4 kDa FITC-dextran was determined as follows. Prior to dextran fluxes the medium was refreshed with culture medium without phenol red for one hour followed by addition of 5 μl (stock 100 mg/ml) 4 kDa FITC-dextran to the luminal compartment. After 60 min of incubation 100 μl sample was collected from the serosal compartment and the fluorescent signal measured at excitation wavelength 485 nm and emission 520 nm (FLUOstar Galaxy®, BMG Labtechnologies, USA). FITC-dextran fluxes were calculated as pmol FITC-dextran/cm^2/h. Statistical analyses were performed using the ANOVA (SPSS version 10).

[2] = system: intestinal epithelial cell lines T84; test: Transepithelial resistance (TER) of T84 monolayers; format: cell-based, human; settings: for Resistance (TER) Disrupted by IL-4 / Resistance (TER) Basal: T84 monolayers, fatty acid 100 μM, 72 hr incubation; for Resistance (TER) Disrupted by IL-4: IL-4 mediated barrier disruption; for Effect on epithelial resistance (in words): both under basal and barrier disruptive conditions, 100 μM, 72 hr; for Effect on barrier integrity and epithelial paracellular permeability (in words): summary statement
Method: as §1, with “Monolayers (MC) of intestinal epithelial cell lines T84 (American Type Culture Collection (ATTC), Manassas, USA) were cultured on transwell filters (Corning, Costar BV, The Netherlands) allowing both mucosal and serosal sampling and stimulation of human intestinal epithelial cells. […] Louis, USA). The latter procedure was chosen to mimic the in vivo administration route of the dietary compounds. […] Experiments” for “Experiments”

MUC-2 expression = settings: MC T84 and CC T84; compared to propionate and butyrate
Source text: See also the examples in applicants' co-pending European application no. 04748674.1).

| SMILES | Permeability (Flux) Increased by IL-4 [1] | Effect on increase of permeability caused by cytokines (in words) [1] | Resistance (TER) Disrupted by IL-4 [2] | Resistance (TER) Basal [2] | Effect on epithelial resistance (in words) [2] | Effect on barrier integrity and epithelial paracellular permeability (in words) [2] | Stimulation of MUC-2 expression (mucus production) (MUC-2 expression) |
| --- | --- | --- | --- | --- | --- | --- | --- |
| CCCCCC=CCC=CCC=CCC=CCCCC(=O)O [AA, 5,8,11,14-eicosatetraenoic acid] | 273 ± 76 pmol FITC-dextran/cm^2/h | effectively reduced | 337 ± 13 Ω.cm^2 | 634 ± 29 Ω.cm^2 | improve epithelial resistance |  |  |
| CCC=CCC=CCC=CCC=CCC=CC/C=C\CCC(=O)O [DHA, cis-4,7,10,13,16,19 docosahexaenoic acid] | 304 ± 75 pmol FITC-dextran/cm^2/h | effectively reduced | 328 ± 7 Ω.cm^2 | 584 ± 50 Ω.cm^2 | improve epithelial resistance |  |  |
| CCC=CCC=CCC=CCC=CCC=CCCCCCC(=O)O [DPA, 7,10,13,16,19-docosapentaenoic acid] | 216 ± 123 pmol FITC-dextran/cm^2/h | effectively reduced | 368 ± 4 Ω.cm^2 | 605 ± 27 Ω.cm^2 | improve epithelial resistance | effectively improves barrier integrity and reduces epithelial paracellular permeability |  |
| CC/C=C\C/C=C\C/C=C\C/C=C\C/C=C\CCCC(=O)O [EPA, eicosapentaenoic acid] | 236 ± 145 pmol FITC-dextran/cm^2/h |  | 375 ± 9 Ω.cm^2 | 584 ± 7 Ω.cm^2 |  |  |  |
| CCCCCCCCCCCCCCCC(=O)O [Palmitic acid, palmitic acid] | 646 ± 106 pmol FITC-dextran/cm^2/h | not | 272 ± 11 Ω.cm^2 | 496 ± 50 Ω.cm^2 | not effective |  |  |
| CC(=O)O [acetate] |  |  |  |  |  |  | more potent in stimulating MUC-2 expression |
| CCCCC/C=C\C/C=C\CCCCCCCC(=O)O [linoleic acid] |  |  |  |  |  | ineffective |  |
